# From US20220193255A1, “CHLORHEXIDINE SYSTEMS AND METHODS FOR OBTAINING SAME” (priority 2019, published 2022)
# Assays:
# [1] = Chlorhexidine gluconate remaining after gamma irradiation, measured by HPLC; assay type: physicochemical; conditions: for Chlorhexidine gluconate after irradiation, % / Preservation, %: initial CHD 0.075 wt %
# Protocol: An aqueous solution of silver nitrate salt (as the source of silver) was prepared so that the final concentration of silver in the solution was 60 ppm. A 20 wt % aqueous solution of chlorhexidine gluconate (CHD) was added to make the resulting concentration of 0.05 wt %. Finally, isopropanol was added to achieve the concentration of 4 wt % in the resulting solution. The sample was a transparent colorless liquid. Thermo Scientific Evolution 220 Spectrophotometer was used to monitor the absorbance spectra of the sample, which is shown in FIG. 1 as the dashed line. The 30 ml sample solution was then subjected to irradiation by gamma rays at 7 kGy. The resulting solution was a transparent brownish liquid showing a clear peak of absorption at the wavelength 412.7 nm (solid line in FIG. 1), which corresponds to the presence of silver nanoparticles. The sample of the irradiated solution was presented for imaging to Transmission Electron Microscope (JEOL JEM 2100F) and an example of the image is shown in FIG. 2, which confirms formation of silver nanoparticles in the irradiated solution. The nanoparticles have quasi-spherical form and a visible conjugated layer around their surface. […]
# Two identical samples were prepared as described in Example 1, each of them being colorless transparent aqueous solutions containing 60 ppm of silver in the form of silver nitrate, 0.5 wt % of polyvinyl alcohol, 4 wt % of isopropanol and 0.05 wt % of chlorhexidine gluconate. The samples were subjected to different doses of gamma irradiation—the first sample to 7 kGy and the second to 3 kGy. After irradiation the color of the samples changed to the transparent brown.
# To evaluate any influence of the amount and the nature of the stabilizing agent, three different samples were prepared as described in Example 1. Each of them contained 30 ppm of silver in the form of silver nitrate and 0.05 wt % of chlorhexidine gluconate in an aqueous solution. The first sample additionally contained 0.5 wt % of polyvinyl alcohol (PVA) and 10 wt % of isopropanol, the second—2 wt % of polyvinyl alcohol and 10 wt % of isopropanol and the third sample additionally contained 1 wt % of polyvinylpyrrolidone (PVP) and 4 wt % of isopropanol. All three samples represented clear colorless liquids before irradiation. The irradiated at 10 kGy samples changed their color to the transparent brown color of different intensities. The concentration of chlorhexidine gluconate was measured using HPLC and determined as 0.015 wt % in the first and the second sample and 0.016 wt % in the third sample. The UV-vis spectra of all three samples show formation of silver nanoparticles, with the only difference that in the sample which contained PVP the nanoparticles are larger than in those which contained PVA (FIG. 5; the “shoulder” of the small dashed line indicates presence of nanoparticles larger than 100 nm).
# To evaluate any difference caused by the initial amount of chlorhexidine gluconate, two samples were prepared as in Example 1, but one of them contained 0.05 wt % of chlorhexidine gluconate and another sample contained 0.075 wt % of chlorhexidine gluconate before irradiation. Both samples were irradiated at 7 kGy, by the action of which the nanoparticles of silver were formed in both samples.
# To evaluate the influence of the amount of silver present in the form of a silver salt as a precursor for nanoparticles formation, three different samples were prepared as described in Example 1. Each of them contained 0.075 wt % of chlorhexidine gluconate, 0.5 wt % of polyvinyl alcohol and 4 wt % of isopropanol in an aqueous solution. Silver nitrate was added to each of the samples so that the concentration of silver in the samples was 15 ppm, 30 ppm and 60 ppm. All the samples were transparent colorless solutions. They were subjected to gamma irradiation at 7 kGy and the concentration of chlorhexidine gluconate was measured consequently using HPLC. […]
# [2] = as above; assay type: physicochemical
# [3] = Example 1: Ag 60 ppm (silver nitrate), initial CHD 0.05 wt %, isopropanol 4 wt %, gamma 7 kGy
# [4] = Example 2: Ag 60 ppm, PVA 0.5 wt %, isopropanol 4 wt %, initial CHD 0.05 wt %, gamma 7 kGy
# [5] = Example 4, first sample: initial CHD 0.05 wt %, silver nitrate, gamma 7 kGy
# [6] = Example 4, second sample: initial CHD 0.075 wt %, silver nitrate, gamma 7 kGy
# [7] = Example 5: Ag 15 ppm, PVA 0.5 wt %, isopropanol 4 wt %, gamma 7 kGy
# [8] = Example 5: Ag 30 ppm, PVA 0.5 wt %, isopropanol 4 wt %, gamma 7 kGy
# [9] = Example 5: Ag 60 ppm, PVA 0.5 wt %, isopropanol 4 wt %, gamma 7 kGy
# [10] = Example 9: Au 30 ppm (chloroauric acid), isopropanol 4 wt %, initial CHD 0.05 wt %, gamma 3 kGy
structure (smiles),measurement,setting,value
[H]/N=C(\N/C(=N/[H])NCCCCCCNC(=N)NC(=N)Nc1ccc(Cl)cc1)Nc1ccc(Cl)cc1 [chlorhexidine gluconate],concentration of chlorhexidine gluconate in the irradiated solution,[1]; [3],0.0295 wt %
same,rate of preservation compared to the initial level before irradiation,[1]; [3],59%
same,rate of preservation,"[1]; Example 2: Ag 60 ppm, PVA 0.5 wt %, isopropanol 4 wt %, initial CHD 0.05 wt %, gamma 3 kGy",79%
same,chlorhexidine gluconate after irradiation,[1]; [4],0.0294 wt %
same,rate of preservation,[1]; [4],58.8%
same,concentration of chlorhexidine gluconate after irradiation,"[1]; Example 3, first sample: Ag 30 ppm, initial CHD 0.05 wt %, PVA 0.5 wt %, isopropanol 10 wt %, gamma 10 kGy",0.015 wt %
same,concentration of chlorhexidine gluconate after irradiation,"[1]; Example 3, second sample: Ag 30 ppm, initial CHD 0.05 wt %, PVA 2 wt %, isopropanol 10 wt %, gamma 10 kGy",0.015 wt %
same,concentration of chlorhexidine gluconate after irradiation,"[1]; Example 3, third sample: Ag 30 ppm, initial CHD 0.05 wt %, PVP 1 wt %, isopropanol 4 wt %, gamma 10 kGy",0.016 wt %
same,concentration of chlorhexidine gluconate after irradiation,[1]; [5],0.0294 wt %
same,preservation rate,[1]; [5],58.8%
same,concentration of chlorhexidine gluconate after irradiation,[1]; [6],0.052 wt %
same,preservation rate,[1]; [6],69.3%
same,"Chlorhexidine gluconate after irradiation, %",[1]; [7],0.043%
same,"Preservation, %",[1]; [7],57.33%
same,"Chlorhexidine gluconate after irradiation, %",[1]; [8],0.049%
same,"Preservation, %",[1]; [8],65.33%
same,"Chlorhexidine gluconate after irradiation, %",[1]; [9],0.052%
same,"Preservation, %",[1]; [9],69.33%
same,preservation,[1]; [10],51.6%
same,presence of chlorhexidine in the irradiated sample,"[2]; Example 8 (comparative): gold nanoparticles made chemically with ascorbic acid, CHD 0.05 wt % added afterwards, gamma 7 kGy",not detected
same,chlorhexidine gluconate detected after irradiation,[2]; [10],0.0258 wt %
